Series [1] can be described thus: Potentiometric determination of ligand protonation (dissociation) constants. The series is classed as physicochemical. The settings on record: 25 °C, I(KNO3) = 0.1 M. As to the method:
The stock solution of HPic and H2Dpic was prepared by dissolving in demineralized water (c(ligand) = 0.02 M). The gallium(III) ion solution was prepared from anhydrous gallium(III) nitrate (c(Ga^3+) = 0.05 M) and was standardized by back titration of excess of EDTA with zinc(II). Decarbonated potassium hydroxide solution (approx. 0.2 M) was used as a titrant that was standardized by potassium hydrogen phthalate (c(KHP) = 0.1 M). Standard inert electrolyte of nitric acid was used in all titrations (c(HNO3) = 0.03 M, I(HNO3/KNO3) = 0.1 M). Potentiometric measurements were carried out using a TitroLine 7000 dosage system with a BlueLine combination electrode (SI Analytics) in a glass vessel (5 mL) thermostated at 25 ± 0.1 °C at an ionic strength I(KNO3) = 0.1 M. Inert atmosphere was ensured by a constant flow of a nitrogen gas. Precise calibration of the electrode was carried out by the titration of 0.03 M HNO3 with 0.2 M KOH in the range –log[H^+] = 1.8–12.0, with the pH-meter yielding E values. The relation between E and –log[H^+] is expressed by Eq. (1) where the term E^0 contains the standard potentials of the electrode and the contribution of inert ions to the liquid-junction potential. The value S corresponds to the Nernstian slope, the value of which should be close to the theoretical value, and j1[H^+] and j2[OH^–] = j2Kw/[H^+] are contributions of the H^+ and OH^– ions, respectively, to the liquid-junction potential. The pKw value was 13.78 in Eq. (1).1 E=E^0-S-logH^++j1H^++j2Kw/H^+
The parameters j1 and j2 cause deviation from linear dependence between E and –log[H^+] only in strongly acidic and strongly alkaline solutions. The picolinic and dipicolinic acid protonation constants were determined with ligand concentration 0.004 M. The stability constants in the Ga-HPic and Ga-H2Dpic binary system were determined by the ligand concentrations 0.004 and the Ga^3+ concentration was 0.004, 0.002 and 0.001 M in dependence on the ligand to metal ratio.
The protonation constants β110, β210 are the concentration constants and are defined by β110 = [HL]/ [H][L], β210 = [H2L]/ [H]^2[L] (pK2 = logβ110, pK1 = logβ210- logβ110); the stability constants are defined by βrqp = [HrLqMp]/[H]^r[L]^q[M]^p. The equilibrium constants were obtained by fitting the titration data with OPIUM [23]. The following hydrolysis constants were used for the calculations: βpr = [Mp(OH)r^3−r][H]^r/[M]^p; log β11 = − 2.74; log β12 = − 7.0; log β13 = − 11.96; log β14 = − 15.52 [24].

Series [2] relates to Candida parapsilosis (C. parapsilosis) ATCC 22019. The series can be described thus: Antimicrobial activity, macrodilution method (yeast, growth by A590). The series is classed as cell-based. The settings on record: Lodderomyces parapsilosis.
Series [3] deals with any model microorganism. The series can be described thus: Antimicrobial activity, macrodilution method, all model microorganisms together. Type of series: cell-based. The settings on record: free ligands, range 0.5–2.0 mM. As to the method:
Cultures of bacteria (in Mueller–Hinton broth, MHB) and yeasts (in Sabouraud’s growth medium, SB) were incubated under shaking (250 rpm) at 37 °C. The growth of bacteria and yeasts was evaluated by measuring the absorbance of the growing cultures (A590) until the cultures reached the stationary growth phase. The effects of gallium(III) complexes on the growth of filamentous fungi Rhizopus oryzae (R. oryzae) CCM F-8284, Alternaria alternata (A. alternata) CCM F-128 and Microsporum gypseum (M. gypseum) CCM F-8342 (Czech Collection of Microorganisms) were observed by macrodilution method on solidified potato-dextrose growth medium (PDA). During culturing, the diameters of growing fungal colonies were measured at regular intervals. Briefly, the antimicrobial activity (bacteria and yeasts) gallium(III) complexes/ ligands were added to the microbial culture at the beginning of the cultivation-to the lag phase. Pure gallium(III) complexes/ligands were dissolved in DMSO. The final concentration of DMSO never exceeded 1.0 vol. % neither in control nor treated samples. Concentration of gallium(III) complexes used in experimental work for evaluation of antimicrobial activity was used in the range of 0.05–2 mM, for the free ligands in the range of 0.5–2.0 mM in all experiments. […] The IC50 values were evaluated from toxicity curves. All the obtained results of antimicrobial activity were compared to the activity of Ga(NO3)3.

These results are taken from article PMC10415494, “Ga(III) pyridinecarboxylate complexes: potential analogues of the second generation of therapeutic Ga(III) complexes?” (Journal of Biological Inorganic Chemistry, 2023).

Where two headings read alike, the source gives them in different places.

One may read the IC50 as the concentration at which inhibition is half-maximal. As for `O=C(O)c1cccc(C(=O)O)n1` [H2Dpic, dipicolinic acid], in series [1], the “dissociation constant pK2” value amounted to 2.02 and the “dissociation constant pK3” value is 4.74. The IC50 in series [2] (ATCC22019, read-out: IC50 C. parapsilosis) is > 1000 µM.
For `O=C(O)c1ccccn1` [HPic, picolinic acid], in series [1], the “dissociation constant pK1” value was 1.17 and the “dissociation constant pK2” value is 5.25. For the same compound, in series [3], the “effect on the growth of any model microorganism” value is given as “did not affect the growth”. For the same compound, the half-maximal inhibitory concentration (IC50) in series [2] (ATCC22019, Yeast, Sabouraud's growth medium, 37 °C, read-out: IC50 C. parapsilosis) is > 500 µM.
